Experimental findings from patent US9242981B2, “Fused pyrazole derivatives as novel ERK inhibitors” (Merck Sharp & Dohme Corp., priority 2010, dated 2016) are described below.

The term IC50 denotes the point on the concentration scale where inhibition reaches its midpoint. The low end stands for greater potency, the high end for weaker potency.

The assay addresses Mouse ERK2 protein (Mus musculus (Mouse), UniProt P63085). As to the kind of experiment: Coupled MEK1/ERK2 IMAP assay or Active ERK2 IMAP assay. The class given is biochemical. As to the method:
14 μl of kinase buffer (10 mM Tris.HCl pH 7.2, 10 mM MgCl2, 0.01% Tween-20, 1 mM DTT) containing 0.4 ng unphosphorylated Mouse ERK2 protein is added to each well of a black 384-well assay plate. […] DMSO concentration during initial incubation is 6.7%. […] DMSO concentration during ERK activation was 4%. After one hour, reactions are terminated by addition of 60 μl IMAP detections beads in binding buffer (Molecular Devices). Binding is allowed to equilibrate for 30 minutes before reading the plate on an LJL Analyst Fluorescence Polarization plate reader.
Activated ERK2 activity was also determined in the IMAP assay format using the procedure outlined above. […] Reactions proceeded for 30 minutes before termination by addition of […] IMAP detection beads in binding buffer. Plates were read as above after 30 minute binding equilibration.

Where [1] appears, read: Table 1, class symbols, 30 μM ATP.

Chain of Mouse ERK2 protein (P63085 whole entry): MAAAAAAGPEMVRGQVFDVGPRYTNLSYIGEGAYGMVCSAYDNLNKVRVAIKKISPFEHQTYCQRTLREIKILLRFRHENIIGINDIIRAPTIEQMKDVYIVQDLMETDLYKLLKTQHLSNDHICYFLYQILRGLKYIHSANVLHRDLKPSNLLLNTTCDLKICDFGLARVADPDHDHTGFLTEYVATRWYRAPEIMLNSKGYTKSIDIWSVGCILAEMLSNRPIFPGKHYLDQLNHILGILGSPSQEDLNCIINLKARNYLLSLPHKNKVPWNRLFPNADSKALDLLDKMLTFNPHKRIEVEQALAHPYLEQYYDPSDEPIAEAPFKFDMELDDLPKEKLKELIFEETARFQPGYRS

In the case of `O=C(NC1CN(Cc2c(F)cccc2F)CCC1F)N1CCc2[nH]nc(-c3ccc4nccn4c3)c2C1` (mixture of isomers) [Compound 156, N-[cis/trans-1-[(2,6-difluorophenyl)methyl]-4-fluoro-3-piperidinyl]-1,4,6,7-tetrahydro-3-imidazo[1,2-a]pyridin-6-yl-5H-pyrazolo[4,3-c]pyridine-5-carboxamide], the IC50 under setting [1] lay in the range of 101 to 1000 nM.
`Cc1cc(-c2n[nH]c3c2CN(C(=O)NC2CN(Cc4c(F)cccc4F)CCC2F)CC3)ccn1` (mixture of isomers) [Compound 158, N-[cis/trans-1-[(2,6-difluorophenyl)methyl]-4-fluoro-3-piperidinyl]-1,4,6,7-tetrahydro-3-(2-methyl-4-pyridinyl)-5H-pyrazolo[4,3-c]pyridine-5-carboxamide] came in with an IC50 under setting [1] of 101 to 1000 nM.
Take `CC1(C(=O)N[C@H]2CNC[C@@H]2c2ccccc2)CCc2[nH]nc(-c3ccncc3)c2C1` (mixture of isomers) [Compound 4, 4,5,6,7-tetrahydro-5-methyl-N-(trans-4-phenyl-3-pyrrolidinyl)-3-(4-pyridinyl)-1H-indazole-5-carboxamide (mixture of isomers)]: the IC50 under setting [1] was 101 to 1000 nM.
`O=C(N[C@H]1CNC[C@@H]1c1ccccc1)[C@@H]1CCc2[nH]nc(-c3ccncc3)c2C1` (racemic) [Compound 12, 4,5,6,7-tetrahydro-N-(trans-4-phenyl-3-pyrrolidinyl)-3-(4-pyridinyl)-1H-indazole-5(R)-carboxamide] returned a half-maximal inhibitory concentration (IC50) under setting [1] of 101 to 1000 nM.
In the case of `O=C(N[C@H]1CNC[C@@H]1c1ccccc1)[C@H]1CCc2[nH]nc(-c3ccncc3)c2C1` (racemic) [Compound 13, 4,5,6,7-tetrahydro-N-(trans-4-phenyl-3-pyrrolidinyl)-3-(4-pyridinyl)-1H-indazole-5(S)-carboxamide], the IC50 under setting [1] was 21 to 100 nM.
For the setting “Table 2, 30 μM ATP”, `O=C(N[C@H]1CNC[C@@H]1c1ccccc1)N1CCc2[nH]nc(-c3ccncc3)c2C1` (racemic) [Compound 37, 1,4,6,7-tetrahydro-N-(trans-4-phenyl-3-pyrrolidinyl)-3-(4-pyridinyl)-5H-pyrazolo[4,3-c]pyridine-5-carboxamide] registered an IC50 of 1.16 nM.
Under setting [1], `O=C(N[C@H]1CNC[C@@H]1c1ccccc1)C1CCc2[nH]nc(-c3ccc4ncsc4c3)c2C1` (mixture of isomers) [Compound 43, 3-(6-benzothiazolyl)-4,5,6,7-tetrahydro-N-(trans-4-phenyl-3-pyrrolidinyl)-1H-indazole-5-carboxamide] came in with a half-inhibitory concentration (IC50) of 1000 to 100000 nM.
`O=C(N[C@H]1CNC[C@@H]1c1ccccc1)[C@H]1CCc2[nH]nc(-c3ccc4ncsc4c3)c2C1` (racemic) [Compound 44, 3-(6-benzothiazolyl)-4,5,6,7-tetrahydro-N-(trans-4-phenyl-3-pyrrolidinyl)-1H-indazole-5(S)-carboxamide] had an IC50 under setting [1] of 1000 to 100000 nM.
With `Cc1ccccc1[C@@H]1CN(C)C[C@H]1NC(=O)N1CCc2[nH]nc(-c3ccc(F)cc3)c2C1` (racemic) [Compound 141, 3-(4-fluorophenyl)-1,4,6,7-tetrahydro-N-[trans-1-methyl-4-(2-methylphenyl)-3-pyrrolidinyl]-5H-pyrazolo[4,3-c]pyridine-5-carboxamide], under setting [1], the IC50 is less than 20 nM.
As for `O=C(N[C@@H]1CCC[C@H]1c1ccccc1)N1CCc2[nH]nc(-c3ccncc3)c2C1` (racemic) [Compound 143, 1,4,6,7-tetrahydro-N-[trans-2-phenylcyclopentyl]-3-(4-pyridinyl)-5H-pyrazolo[4,3-c]pyridine-5-carboxamide], the IC50 under setting [1] was less than 20 nM.
Molecule `Cc1ccccc1[C@@H]1CN(C)C[C@H]1NC(=O)N1CCc2[nH]nc(-c3ccc4c(c3)CCO4)c2C1` (racemic) [Compound 145, 3-(2,3-dihydro-5-benzofuranyl)-1,4,6,7-tetrahydro-N-[trans-1-methyl-4-(2-methylphenyl)-3-pyrrolidinyl]-5H-pyrazolo[4,3-c]pyridine-5-carboxamide] came in with an IC50 (Table 2, 30 μM ATP) of 1.52 nM.
`CCn1cc(-c2n[nH]c3c2CN(C(=O)NC2CN(C)CC2c2ccccc2C)CC3)cn1` (racemic) [Compound 147, 3-(1-ethyl-1H-pyrazoI-4-yl)-1,4,6,7-tetrahydro-N-ttrans-1-methyl-4-(2-methylphenyl)-3-pyrrolidinyl]-5H-pyrazolo[4,3-c]pyridine-5-carboxamide] had an IC50 (Table 2, 30 μM ATP) of 1.9 nM.
`CN1C[C@@H](NC(=O)N2CCc3[nH]nc(-c4ccncc4)c3C2)[C@H](c2ccccc2C(F)(F)F)C1` (racemic) [Compound 149, 1,4,6,7-tetrahydro-N-[trans-1-methyl-4-[2-(trifluoromethyl)phenyl]-3-pyrrolidinyl]-3-(4-pyridinyl)-5H-pyrazolo[4,3-c]pyridine-5-carboxamide]: the IC50 under setting [1] is less than 20 nM.
Under setting [1], `CN1C[C@@H](NC(=O)N2CCc3[nH]nc(-c4ccc(F)cc4)c3C2)[C@H](c2ccccc2C(F)(F)F)C1` (racemic) [Compound 151, 3-(4-fluorophenyl)-1,4,6,7-tetrahydro-N-[trans-1-methyl-4-[2-(trifluoromethyl)phenyl]-3-pyrrolidinyl]-5H-pyrazolo[4,3-c]pyridine-5-carboxamide] gave an IC50 of less than 20 nM.
Turning to `CN1C[C@@H](NC(=O)N2CCc3[nH]nc(-c4ccc5c(c4)CCO5)c3C2)[C@H](c2ccccc2C(F)(F)F)C1` (racemic) [Compound 153, 3-(2,3-dihydro-5-benzofuranyl)-1,4,6,7-tetrahydro-N-[trans-1-methyl-4-[2-(trifluoromethyl)phenyl]-3-pyrrolidinyl]-5H-pyrazolo[4,3-c]pyridine-5-carboxamide], the IC50 under setting [1] was less than 20 nM.
Under setting [1], `CCn1cc(-c2n[nH]c3c2CN(C(=O)N[C@@H]2CN(C)C[C@H]2c2ccccc2C(F)(F)F)CC3)cn1` (racemic) [Compound 155, 3-(1-ethyl-1H-pyrazol-4-yl)-1,4,6,7-tetrahydro-N-[trans1-methyl-4-[2-(trifluoromethyl)phenyl]-3-pyrrolidinyl]-5H-pyrazolo[4,3-c]pyridine-5-carboxamide] came in with an IC50 of less than 20 nM.
Turning to `Cc1ccc([C@@H]2CNC[C@H]2NC(=O)N2CCc3[nH]nc(-c4ccncc4)c3C2)cc1` (racemic) [Compound 157, 1,4,6,7-tetrahydro-N-[trans-4-(4-methylphenyl)-3-pyrrolidinyl]-3-(4-pyridinyl)-5H-pyrazolo[4,3-c]pyridine-5-carboxamide], the 50% inhibitory concentration (IC50) under setting [1] was less than 20 nM.
`Cc1ccc(C2CN(C)CC2NC(=O)N2CCc3[nH]nc(-c4ccncc4)c3C2)cc1` (racemic) [Compound 159, 1,4,6,7-tetrahydro-N-[trans-1 methyl-4-(4-methylphenyl)-3-pyrrrolidinyl]-3-(4-pyridinyl)-5H-pyrazolo[4,3-c]pyridine-5-carboxamide] yielded an IC50 under setting [1] of less than 20 nM.
As to `CCN1C[C@@H](NC(=O)N2CCc3[nH]nc(-c4ccncc4)c3C2)[C@H](c2ccc(C)cc2)C1` (racemic) [Compound 161, N-[trans-1-ethyl-4-(4-methylphenyl)-3-pyrrolidinyl]-1,4,6,7-tetrahydro-3-(4-pyridinyl)-5H-pyrazolo[4,3-c]pyridine-5-carboxamide], the IC50 under setting [1] was less than 20 nM.
`CN1C[C@@H](NC(=O)N2CCc3[nH]nc(-c4ccncc4)c3C2)[C@H](c2ccccc2-c2ccccc2)C1` (racemic) [Compound 163, N-[trans-4-[1,1′-biphenyl]-2-yl-1-methyl-3-pyrrolidinyl]-1,4,6,7-tetrahydro-3-(4-pyridinyl)-5H-pyrazolo[4,3-C]pyridine-5-carboxamide] gave a 50% inhibitory concentration (IC50) under setting [1] of less than 20 nM.
